Results: US8492442B2, “Medicinal composition, food or drink having effect of enhancing parasympathetic nervous activity” (Suntory Holdings Limited, priority 2007, dated 2013)
Entries after “also recorded” stand apart in the source; their conditions may differ.

Key:
[1] = system: kidney sympathetic nervous activity; test: Rat kidney sympathetic nervous activity after transduodenal administration (electrical discharge recording); format: in vivo; conditions: male Wister rats, urethane-anesthesia
Method: In these experiments, use was made of male Wister rats weighing about 300 to 350 g which had been preliminarily fed in a thermostatic chamber (24° C.) with a light-dark cycle of 12-hour intervals (under illumination from 8:00 to 20:00) for 1 week or longer. A single rat was employed for each nervous experiment. The animals were fed with a feed (MF: Oriental Yeast) and water ad libitum. The autonomic nervous activity were examined by fasting the rats for 5 hours on the day of the experiment and then subjecting to an abdominal surgery under urethane-anesthesia (1 g/kg, i.p.). Then, the effects of the transduodenal administration of L-phenyl lactic acid and D-phenyl lactic acid (10 μg or 100 μg) on the kidney sympathetic nervous activity were measured in accordance with the method reported by T. Yamano et al., Neurosci. Lett. 313:78-82 (2001), A. Niijima et al., Autonom. Neurosci.: Basic & Clinical 97:99-102 (2002) and M. Tanida et al., Am. J. Physiol: Regulatory, Integrative and Comparative Physiology 288:R447-R455 (2005). Namely, the sympathetic nerve projecting toward the kidney was cut before the organ and the central side was placed on a silver electrode. Thus, a change in the electrical activity was monitored. To prevent dryness, the electrode had been preliminarily dipped in a mixture of liquid paraffin and petroleum jelly for a sufficient period of time. From the initiation of the surgery to the completion of the measurement, a tube was inserted into the respiratory tract for the management of the airway. The body temperature (rat rectal temperature) was maintained at 35±0.5° C. with the use of a heater. The transduodenal administration was conducted by dissolving L-phenyl lactic acid or D-phenyl lactic acid in physiological saline to give a concentration of 10 μg/2 ml or 100 μg/2 ml, and administering 2 ml/animal of each solution at a rate of 1 ml/min through a polyethylene tube inserted into the duodenum. Electrical nervous activity thus obtained were amplified with a condenser type differential amplifier, monitored with an oscilloscope and recorded on a magnetic tape. To separate the raw data from the background noise, all of the nervous activities were converted into standard pulses by use of a slicer and a window discriminator before analyzing. Discharge frequencies were indicated on a pen recorder by using a rate meter at a reset time of 5 seconds. The data was analyzed based on the average discharge frequency per 5 seconds (pulse/5 sec) and expressed in percentage by referring the level before the administration as to 100%. A group with the administration of physiological saline was employed as a control.

blood pressure = test: Rat blood pressure after transduodenal administration (femoral artery cannula, transducer); format: in vivo; conditions: 100 μg, FIG. 4
[2] = system: stomach vagal (parasympathetic) nervous activity; test: Rat stomach vagal (parasympathetic) nervous activity after transduodenal administration; format: in vivo; conditions: 100 μg, FIG. 5
[3] = system: methicillin-resistant Staphylococcus aureus; conditions: phenyl lactic acid produced by use of a lactic acid bacterium; cited from earlier work
Aspergillus niger = conditions: etc.; cited from earlier work
[4] = system: pathogenic Escherichia coli O-157; conditions: phenyl lactic acid produced by use of a lactic acid bacterium; cited from earlier work

In the case of `O=C(O)[C@H](O)Cc1ccccc1` [D-phenyl lactic acid, D-β-3-phenyl lactic acid], the “effect on kidney sympathetic nervous activity” value ([1]; 10 μg/animal, FIG. 2) is reported as “enhanced”, the “effect on kidney sympathetic nervous activity” value ([1]; 100 μg/animal, FIG. 3) is reported as “reduced” and the “effect on rat blood pressure” value (blood pressure) is reported as “hypotensive effects”.

With `O=C(O)[C@@H](O)Cc1ccccc1` [L-phenyl lactic acid, L-β-3-phenyl lactic acid] the “effect on kidney sympathetic nervous activity” value ([1]; 10 μg/animal, FIG. 2) was “little effect”, the “effect on kidney sympathetic nervous activity” value ([1]; 100 μg/animal, FIG. 3) was “reduced; also recorded: higher reducing effect” and the “effect on rat blood pressure” value (blood pressure) was “hypotensive effects”. The “effect on rat stomach vagal (parasympathetic) nervous activity” value [2] was “enhancement”.

For `O=C(O)C(O)Cc1ccccc1` (stereo not shown) [phenyl lactic acid, 2-hydroxy-3-phenyl propionic acid], the antibacterial effect [3] is given as “antibacterial effect”, the antifungal activity (Aspergillus niger) is given as “antifungal activity” and the antibacterial effect [4] is given as “antibacterial effect”.
